Activity calls are given as the source filed them. The calls are words filed in the database; no cut-off is given here.
Assays:
Escherichia coli = test: MIC per disc against Escherichia coli by disc diffusion method; type: functional
Salmonella typhi = test: MIC per disc against Salmonella typhi by disc diffusion method; type: functional, Salmonella enterica subsp. enterica serovar Typhi
Staphylococcus aureus = test: MIC per disc in Staphylococcus aureus by disc diffusion method; type: functional
[1] = tested on: Streptomyces thermovulgaris; test: MIC per disc against Streptomyces thermonitrificans by disc diffusion method; type: functional
Pseudomonas aeruginosa = test: MIC per disc against Pseudomonas aeruginosa by disc diffusion method; type: functional
RBCs = test: Cytotoxicity against erythrocytes by haemolytic assay at upto 500 ug/ml; type: functional, Erythrocyte
[2] = Salmonella enterica subsp. enterica serovar Typhi

Cc1c2n(c3ccccc13)CCNC2c1cccs1 (stereo not drawn) was tested, and the MIC (Escherichia coli) was “inactive”, the MIC (Salmonella typhi) was 30 µg and the MIC (Staphylococcus aureus) was 60 µg. The MIC [1] was “inactive” and the MIC (Pseudomonas aeruginosa) was “inactive”.
CCOP(=O)(CN1CCn2c(c(C)c3ccccc32)C1)OCC was tested, and the MIC (Escherichia coli) was “inactive”, the MIC (Salmonella typhi; [2]) was “inactive” and the MIC (Staphylococcus aureus) was “inactive”. The MIC [1] was 60 µg and the MIC (Pseudomonas aeruginosa) was 60 µg.
With Cc1c2n(c3ccccc13)CCNC2c1ccc(F)cc1 (stereo not drawn) the MIC (Escherichia coli) was 15 µg, the MIC (Salmonella typhi) was 30 µg and the MIC (Staphylococcus aureus) was 30 µg. For the same compound, the MIC [1] was 7.5 µg, the MIC (Pseudomonas aeruginosa) was 30 µg and the Activity (RBCs) was 5%.
Compound COc1cccc(C2NCCn3c2c(C)c2ccccc23)c1 (stereo not drawn) has an MIC (Escherichia coli) of 30 µg, an MIC (Salmonella typhi) of 30 µg and an MIC (Staphylococcus aureus) of 60 µg. For the same compound, the MIC [1] was 15 µg and the MIC (Pseudomonas aeruginosa) was “inactive”.
In the case of Cc1c2n(c3ccccc13)CCN(Cc1ccccc1)C2, the MIC (Escherichia coli) was “inactive”, the MIC (Salmonella typhi) was 60 µg and the MIC (Staphylococcus aureus) was 15 µg. For the same compound, the MIC [1] was 60 µg and the MIC (Pseudomonas aeruginosa) was 60 µg.
Cc1cn2c(cc3ccccc32)c(-c2ccccc2)n1 showed an MIC (Escherichia coli) of 60 µg, an MIC (Salmonella typhi) of 60 µg and an MIC (Staphylococcus aureus) of 60 µg. For the same compound, the MIC [1] was 60 µg and the MIC (Pseudomonas aeruginosa) was 60 µg.
For Cc1c2n(c3ccccc13)CCNC2c1ccc(Br)cc1 (stereo not drawn), the MIC (Escherichia coli) was “inactive”, the MIC (Salmonella typhi) was 60 µg and the MIC (Staphylococcus aureus) was 15 µg. The MIC [1] was 15 µg and the MIC (Pseudomonas aeruginosa) was 60 µg.
With Cc1c2n(c3ccccc13)CCNC2c1ccccn1 (stereo not drawn) the MIC (Escherichia coli) was “inactive”, the MIC (Salmonella typhi; [2]) was “inactive” and the MIC (Staphylococcus aureus) was 3.75 µg. For the same compound, the MIC [1] was “inactive” and the MIC (Pseudomonas aeruginosa) was “inactive”.
For Cc1cn2c(cc3ccccc32)c(C)n1, the MIC (Escherichia coli) was 60 µg, the MIC (Salmonella typhi) was 60 µg and the MIC (Staphylococcus aureus) was 60 µg. For the same compound, the MIC [1] was 60 µg and the MIC (Pseudomonas aeruginosa) was 60 µg.
For Cc1c2n(c3ccccc13)CCNC2c1ccccc1 (stereo not drawn), the MIC (Escherichia coli) was “inactive”, the MIC (Salmonella typhi; [2]) was “inactive” and the MIC (Staphylococcus aureus) was “inactive”. The MIC [1] was “inactive” and the MIC (Pseudomonas aeruginosa) was 3.75 µg.
Compound C[C@H]1c2cccc(O)c2C(=O)C2=C(O)[C@]3(O)C(=O)C(C(N)=O)=C(O)[C@@H](N(C)C)[C@@H]3[C@@H](O)[C@@H]21.Cl [DOXYCYCLINE HYDROCHLORIDE] has an MIC (Escherichia coli) of 2 µg, an MIC (Salmonella typhi) of 1 µg and an MIC (Staphylococcus aureus) of 1 µg. The MIC [1] was 1 µg and the MIC (Pseudomonas aeruginosa) was 1 µg.
With Cc1ccc(CN2CCn3c(c(C)c4ccccc43)C2)cc1 the MIC (Escherichia coli) was “inactive”, the MIC (Salmonella typhi) was 30 µg and the MIC (Staphylococcus aureus) was 15 µg. For the same compound, the MIC [1] was 60 µg and the MIC (Pseudomonas aeruginosa) was 60 µg.
In the case of Cc1c2n(c3ccccc13)CCN(C)C2, the MIC (Escherichia coli) was “inactive”, the MIC (Salmonella typhi) was 30 µg and the MIC (Staphylococcus aureus) was 30 µg. The MIC [1] was 30 µg and the MIC (Pseudomonas aeruginosa) was 30 µg.
Cc1ccc(C2NCCn3c2c(C)c2ccccc23)cc1 (stereo not drawn) showed an MIC (Escherichia coli) of 15 µg, an MIC (Salmonella typhi) of 15 µg and an MIC (Staphylococcus aureus) of 30 µg. The MIC [1] was 30 µg, the MIC (Pseudomonas aeruginosa) was 60 µg and the Activity (RBCs) was 5%.
Work on GENTAMICIN yielded an MIC (Escherichia coli) of 1 µg, an MIC (Salmonella typhi; [2]) of 1 µg and an MIC (Staphylococcus aureus) of 1 µg. It also gave an MIC [1] of 1 µg and an MIC (Pseudomonas aeruginosa) of 0.5 µg.
For Cc1c2n(c3ccccc13)CCN(Cn1nnc3ccccc31)C2, the MIC (Escherichia coli) was “inactive”, the MIC (Salmonella typhi) was 60 µg and the MIC (Staphylococcus aureus) was 30 µg. The MIC [1] was “inactive” and the MIC (Pseudomonas aeruginosa) was “inactive”.
Cc1c2n(c3ccccc13)CCN(CC#N)C2 was tested, and the MIC (Escherichia coli) was “inactive”, the MIC (Salmonella typhi) was 30 µg and the MIC (Staphylococcus aureus) was 15 µg. For the same compound, the MIC [1] was 30 µg and the MIC (Pseudomonas aeruginosa) was 60 µg.
Cc1c2n(c3ccccc13)CCNC2c1cccc(Cl)c1 (stereo not drawn) was tested, and the MIC (Escherichia coli) was “inactive”, the MIC (Salmonella typhi; [2]) was “inactive” and the MIC (Staphylococcus aureus) was “inactive”. The MIC [1] was 3.75 µg and the MIC (Pseudomonas aeruginosa) was 15 µg.
In the case of Cc1c2n(c3ccccc13)CCNC2c1ccc([N+](=O)[O-])cc1 (stereo not drawn), the MIC (Escherichia coli) was 30 µg, the MIC (Salmonella typhi) was 30 µg and the MIC (Staphylococcus aureus) was 30 µg. It also gave an MIC [1] of 15 µg, an MIC (Pseudomonas aeruginosa) of 30 µg and an Activity (RBCs) of 5%.

Source: ChEMBL document CHEMBL1147777, “Synthesis and antibacterial activity of substituted 1,2,3,4-tetrahydropyrazino [1,2-a] indoles” (2006)
